{
  "source": "patent US8183234B2",
  "about": "“Tricyclic guanidine derivatives as sodium-proton exchange inhibitors” (Piramal Life Sciences Limited, priority 2004, dated 2012)",
  "note": "Where a name gives a salt, the structure may show the parent alone.",
  "data": [
    {"units": {"melting point": "°C"}, "values": [
      {"smiles": "CS(=O)(=O)O.Cc1cc(C(=O)NC(=N)N)cc2c1Oc1c(Cl)cc(NC(=O)CO)cc1CS2(=O)=O", "note": "[Example 136, N-(4-Chloro-8-guanidinocarbonyl-6-methyl-10,10-dioxo-10,11-dihydro-5-oxa-10lambda*6*-thia-dibenzo[a,d]cycloheptene-2-yl)-2-hydroxy-acetamide methane sulfonic acid salt]", "melting point": "180 to 182"},
      {"smiles": "CS(=O)(=O)O.CS(=O)(=O)O.Cc1cc(C(=O)NC(=N)N)cc2c1Oc1c(Cl)cc(NCCNCc3ccccc3)cc1CS2(=O)=O", "note": "[Example 88, N-[2-(2-Benzylamino-ethylamino)-4-chloro-6-methyl-10,10-dioxo-10,11-dihydro-5-oxa-10lambda*6*-thia-dibenzo[a,d]cycloheptene-8-carbonyl]-guanidine dimesylate]", "melting point": "232 to 233"},
      {"smiles": "Cc1cc(C(=O)N=C(N)N)cc2c1Oc1c(Cl)cc(NCCn3ccnc3)cc1CS2(=O)=O", "note": "(as salt: mesylate) [Example 64, N-[4-Chloro-2-(2-imidazol-1-yl-ethylamino)-6-methyl-10,10-dioxo-10,11-dihydro-5-oxa-10lambda*6*-thia-dibenzo[a,d]cycloheptene-8-carbonyl]-guanidine dimesylate]", "melting point": "243 to 244"},
      {"smiles": "CS(=O)(=O)O.Cc1cc(C(=O)NC(=N)N)cc2c1Oc1c(Cl)cc(S(=O)(=O)N3CCOCC3)cc1CS2(=O)=O", "note": "[Example 55, N-[4-chloro-6-methyl-2-(morpholine-4-sulfonyl)-10,10-dioxo-10,11-dihydro-5-oxa-10 lambda*6*-thia-dibenzo[a,d]cycloheptene-8-carbonyl]-guanidine methane sulfonic acid salt]", "melting point": "292 to 293"},
      {"smiles": "CS(=O)(=O)O.CS(=O)(=O)O.Cc1cc(C(=O)NC(=N)N)cc2c1Oc1c(Cl)cc(NC(=O)CNC3CC3)cc1CS2(=O)=O", "note": "[Example 138, N-(4-Chloro-8-guanidinocarbonyl-6-methyl-10,10-dioxo-10,11-dihydro-5-oxa-10lambda*6*-thia-dibenzo[a,d]cyclohepten-2-yl)-2-cyclopropylamino-acetamide dimesylate]", "melting point": "188 to 190"},
      {"smiles": "CS(=O)(=O)O.CS(=O)(=O)O.Cc1cc(C(=O)NC(=N)N)cc2c1Oc1c(Cl)cc(NCCNCCN3CCOCC3)cc1CS2(=O)=O", "note": "[Example 79, N-{4-Chloro-6-methyl-2-[2-(2-morpholin-4-yl-ethylamino)-ethylamino]-10,10-dioxo-10,11-dihydro-5-oxa-10lambda*6*-thia-dibenzo[a,d]cycloheptene-8-carbonyl}-guanidine dimesylate]", "melting point": "255 to 256"},
      {"smiles": "CS(=O)(=O)O.CS(=O)(=O)O.CS(=O)(=O)O.Cc1cc(C(=O)NC(=N)N)cc2c1Oc1c(Cl)cc(N3CCN(Cc4cccnc4)CC3)cc1CS2(=O)=O", "note": "[Example 128, N-[4-Chloro-6-methyl-10,10-dioxo-2-(4-pyridin-3-ylmethyl-piperazin-1-yl)-10,11-dihydro-5-oxa-10lambda*6*-thia-dibenzo[a,d]cycloheptene-8-carbonyl]-guanidine trimesylate]", "melting point": "190 to 192"},
      {"smiles": "CNCC(=O)Nc1cc(Cl)c2c(c1)CS(=O)(=O)c1cc(C(=O)NC(=N)N)cc(C)c1O2.CS(=O)(=O)O.CS(=O)(=O)O", "note": "[Example 146, N-(4-Chloro-8-guanidinocarbonyl-6-methyl-10,10-dioxo-10,11-dihydro-5-oxa-10lambda*6*-thia-dibenzo[a,d]cyclohepten-2-yl)-2-methylamino-acetamide dimesylate]", "melting point": "188 to 190"},
      {"smiles": "CCN(CCN(CC)c1cc(Cl)c2c(c1)CS(=O)(=O)c1cc(C(=O)NC(=N)N)cc(C)c1O2)Cc1cccs1.CS(=O)(=O)O.CS(=O)(=O)O", "note": "[Example 87, N-(4-Chloro-2-{ethyl-[2-(ethyl-thiophen-2-ylmethyl-amino)-ethyl]-amino}-6-methyl-10,10-dioxo-10,11-dihydro-5-oxa-10lambda*6*-thia-dibenzo[a,d]cycloheptene-8-carbonyl)-guanidine dimesylate]", "melting point": "156 to 158"},
      {"smiles": "CS(=O)(=O)O.CS(=O)(=O)O.Cc1cc(C(=O)NC(=N)N)cc2c1Oc1c(Cl)cc(S(=O)(=O)N3CCN(C)CC3)cc1CS2(=O)=O", "note": "[Example 54, N-[4-Chloro-6-methyl-2-(4-methyl-piperazine-1-sulfonyl)-10,10-dioxo-10,11-dihydro-5-oxa-10lambda*6*-thia-dibenzo[a,d]cyclohepten-8-carbonyl]-guanidine dimesylate]", "melting point": "187 to 189"},
      {"smiles": "CCN(CCN1CCOCC1)c1cc(Cl)c2c(c1)CS(=O)(=O)c1cc(C(=O)NC(=N)N)cc(C)c1O2.CS(=O)(=O)O.CS(=O)(=O)O", "note": "[Example 67, N-{4-Chloro-2-[ethyl-(2-morpholin-4-yl-ethyl)-amino]-6-methyl-10,10-dioxo-10,11-dihydro-5-oxa-10lambda*6*-thia-dibenzo[a,d]cycloheptene-8-carbonyl}-guanidine dimesylate]", "melting point": "248 to 250"},
      {"smiles": "CS(=O)(=O)O.CS(=O)(=O)O.CS(=O)(=O)O.CS(=O)(=O)O.Cc1cc(C(=O)NC(=N)N)cc2c1Oc1c(Cl)cc(N3CCN(CCN4CCNCC4)CC3)cc1CS2(=O)=O", "note": "[Example 124, N-{4-Chloro-6-methyl-10,10-dioxo-2-[4-(2-piperazin-1-yl-ethyl)-piperazin-1-yl)-10,11-dihydro-5-oxa-10lambda*6*-thia-dibenzo[a,d]cycloheptene-8-carbonyl}-guanidine tetramesylate]", "melting point": "182 to 184"},
      {"smiles": "Cc1cc(C(=O)N=C(N)N)cc2c1Oc1c(cccc1C(C)C)CS2(=O)=O", "note": "(as salt: sulfonic acid salt) [Example 31, N-(4-Isopropyl-6-methyl-10,10-dioxo-10,11-dihydro-5-oxa-10lambda*6*-thia-dibenzo[a,d]cycloheptene-8-carbonyl)-guanidine, methane sulfonic acid salt]", "melting point": "252 to 253"},
      {"smiles": "CS(=O)(=O)O.CS(=O)(=O)O.CS(=O)(=O)O.Cc1cc(C(=O)NC(=N)N)cc2c1Oc1c(Cl)cc(N3CCN(CCN(C)C)CC3)cc1CS2(=O)=O", "note": "[Example 119, N-{4-Chloro-2-[4-(2-dimethylamino-ethyl)-piperazin-1-yl]-6-methyl-10,10-dioxo-10,11-dihydro-5-oxa-10lambda*6*-thia-dibenzo[a,d]cycloheptene-8-carbonyl}-guanidine trimesylate]", "melting point": "243 to 245"},
      {"smiles": "CS(=O)(=O)O.CS(=O)(=O)O.Cc1cc(C(=O)NC(=N)N)cc2c1Oc1c(Cl)cc(NC(=O)CNC3CCC3)cc1CS2(=O)=O", "note": "[Example 143, N-(4-Chloro-8-guanidinocarbonyl-6-methyl-10,10-dioxo-10,11-dihydro-5-oxa-10lambda*6*-thia-dibenzo[a,d]cycloheptene-2-yl)-2-cyclobutylamino-acetamide dimesylate]", "melting point": "190 to 192"},
      {"smiles": "CS(=O)(=O)O.CS(=O)(=O)O.CS(=O)(=O)O.Cc1cc(C(=O)NC(=N)N)cc2c1Oc1c(Cl)cc(N3CCN(Cc4cccc(N)c4)CC3)cc1CS2(=O)=O", "note": "[Example 127, N-{2-[4-(3-Amino-benzyl)-piperazin-1-yl]-4-chloro-6-methyl-10,10-dioxo-10,11-dihydro-5-oxa-10lambda*6*-thia-dibenzo[a,d]cycloheptene-8-carbonyl}-guanidine trimesylate]", "melting point": "214 to 215"},
      {"smiles": "CS(=O)(=O)O.CS(=O)(=O)O.Cc1cc(C(=O)NC(=N)N)cc2c1Oc1c(Cl)cc(NC(=O)CNC3CCCCC3)cc1CS2(=O)=O", "note": "[Example 139, N-(4-Chloro-8-guanidinocarbonyl-6-methyl-10,10-dioxo-10,11-dihydro-5-oxa-10lambda*6*-thia-dibenzo[a,d]cyclohepten-2-yl)-2-cyclohexylamino-acetamide dimesylate]", "melting point": "194 to 196"},
      {"smiles": "CS(=O)(=O)O.CS(=O)(=O)O.Cc1cc(C(=O)NC(=N)N)cc2c1Oc1c(Cl)cc(NCc3cccnc3)cc1CS2(=O)=O", "note": "[Example 165, N-{4-Chloro-6-methyl-10,10-dioxo-2-[(pyridin-3-ylmethyl)-amino]-10,11-dihydro-5-oxa-10lambda*6*-thia-dibenzo[a,d]cycloheptene-8-carbonyl}-guanidine dimesylate]", "melting point": 238},
      {"smiles": "CS(=O)(=O)O.N=C(N)NC(=O)c1ccc2c(c1)S(=O)(=O)Cc1c(F)cccc1O2", "note": "[Example 6, N-(1-Fluoro-10,10-dioxo-10,11-dihydro-5-oxa-10lambda*6*-thia-dibenzo[a,d]cycloheptene-8-carbonyl)-guanidine, methanesulfonic acid salt]", "melting point": "231 to 232"},
      {"smiles": "CS(=O)(=O)O.CS(=O)(=O)O.Cc1cc(C(=O)NC(=N)N)cc2c1Oc1c(N)cccc1CS2(=O)=O", "note": "[Example 159, N-[4-Amino-6-methyl-10,10-dioxo-10,11-dihydro-5-oxa-10lambda*6*-thia-dibenzo[a,d]cycloheptene-8-carbonyl)-guanidine dimesylate]", "melting point": "255 to 257"},
      {"smiles": "CNCCNc1cc(Cl)c2c(c1)CS(=O)(=O)c1cc(C(=O)NC(=N)N)cc(C)c1O2.CS(=O)(=O)O.CS(=O)(=O)O", "note": "[Example 71, N-[4-Chloro-6-methyl-2-(2-methylamino-ethylamino)-10,10-dioxo-10,11-dihydro-5-oxa-10lambda*6*-thia-dibenzo[a,d]cycloheptene-8-carbonyl)-guanidine dimesylate]", "melting point": "250 to 251"},
      {"smiles": "CS(=O)(=O)O.CS(=O)(=O)O.Cc1cc(C(=O)NC(=N)N)cc2c1Oc1c(Cl)cc(NC(=O)CN3CCCCC3)cc1CS2(=O)=O", "note": "[Example 134, N-(4-Chloro-8-guanidinocarbonyl-6-methyl-10,10-dioxo-10,11-dihydro-5-oxa-10lambda*6*-thia-dibenzo[a,d]cycloheptene-2-yl)-2-piperidin-1-yl-acetamide dimesylate]", "melting point": "178 to 180"},
      {"smiles": "CS(=O)(=O)O.CS(=O)(=O)O.CS(=O)(=O)O.Cc1cc(C(=O)NC(=N)N)cc2c1Oc1c(Cl)cc(N(CCN3CCCCC3)C(=O)C3CC3)cc1CS2(=O)=O", "note": "[Example 95, Cyclopropanecarboxylic acid (4-chloro-8-guanidinocarbonyl-6-methyl-10,10-dioxo-10,11-dihydro-5-oxa-10lambda*6*-thia-dibenzo[a,d]cycloheptene-2-yl)-(2-piperidin-1-yl-ethyl)-amide trimesylate]", "melting point": 276}
    ]}
  ]
}
